Measured values reported in patent US20140018384A1, “QUINOLINONE DERIVATIVES FOR USE IN THE TREATMENT OF AN AUTOIMMUNE DISEASE AND/OR AN INFLAMMATORY DISEASE” (PRONOXIS AB, priority 2011, published 2014).
Where two headings read alike, the source gives them in different places.

Assays:
HL-60 cells = experiment: ROS production (isoluminol/HRP luminescence) in HL-60 cells, Biological Example 1; format: cell-based; conditions: Homo sapiens, 50 μM compound vs. blank, read-out: Activity A (fold increase of NADPH activity compared to control)
Experimental: (§1) To cells (HL-60 or PLB-985) in HBSS medium was added compound (25 or 50 μM), isoluminol and Horse Radish Peroxidase, fraction II. Luminescence was measured for 10-30 minutes and the area under the […] curve was divided by that from a control experiment to give the activity expressed as fold change.
(§2) Each assay indicated below was performed at a different site, at a different time, by different personnel and/or using different cell lines, concentrations and controls. The cell line, concentration of example compound and control used in respect of each assay were as indicated below. The values obtained from these different setups (each using an otherwise identical assay) are given as Activity A, B, C, D or E in Table 5 below. The values are expressed as fold increase of NADPH activity in the presence of the relevant of compound (as indicated below) compared to the relevant control (as indicated below).
(§3) Activity A: HL-60 cells; 50 μM compound vs. blank Activity B: PLB-985 cells; 25 μM compound vs. blank Activity C, D and E: PLB-985 cells; 25 μM compound vs. DMSO

PLB-985 cells = experiment: ROS production (isoluminol/HRP luminescence) in PLB-985 cells, Biological Example 1; format: cell-based
Experimental: as §1, §2, §3

[1] = 25 μM compound vs. DMSO, setup D, read-out: Activity D (fold increase of NADPH activity compared to control)
[2] = 25 μM compound vs. DMSO, setup E, read-out: Activity E (fold increase of NADPH activity compared to control)
[3] = 25 μM compound vs. DMSO, setup C, read-out: Activity C (fold increase of NADPH activity compared to control)
[4] = 25 μM compound vs. blank, read-out: Activity B (fold increase of NADPH activity compared to control)

Structure (SMILES) | fold induction at 25 µM (PLB-985 cells; [3]) | fold induction at 25 µM (PLB-985 cells; [4]) | further results
COc1ccc(NC(=O)Cn2cc(C(=O)c3ccc(F)cc3)c(=O)c3cc4c(cc32)OCO4)c(OC)c1 [Example 93, N-(2,4-Dimethoxyphenyl)-2-[3-(4-fluorobenzoyl)-6,7-methylenedioxy-4-oxo-1-quinolinyl]acetamide] |  |  | fold induction at 50 µM (HL-60 cells): 2.9
Cc1ccc(C(=O)c2cn(CC(=O)Nc3ccc(F)c(F)c3)c3cc4c(cc3c2=O)OCO4)cc1 [Example 97, N-(3,4-Difluorophenyl)-2-(6,7-methylenedioxy-4-oxo-3-p-toluoyl-1-quinolinyl)acetamide] |  |  | fold induction at 50 µM (HL-60 cells): 6
CCOc1ccc(NC(=O)Cn2cc(C(=O)c3ccccc3)c(=O)c3cc4c(cc32)OCO4)cc1 [Example 99, 2-(3-Benzoyl-6,7-methylenedioxy-4-oxo-1-quinolinyl)-N-(4-ethoxyphenyl)acetamide] |  |  | fold induction at 50 µM (HL-60 cells): 4.3
Cc1ccc(C(=O)c2cn(CC(=O)Nc3ccccc3C)c3cc4c(cc3c2=O)OCO4)cc1 [Example 101, 2-(6,7-Methylenedioxy-4-oxo-3-p-toluoyl-1-quinolinyl)-N-o-tolylacetamide] |  |  | fold induction at 50 µM (HL-60 cells): 2.1
CCc1ccc(C(=O)c2cn(CC(=O)Nc3ccc(OC)cc3)c3cc4c(cc3c2=O)OCO4)cc1 [Example 98, N-p-Anisyl-2-[3-(4-ethylbenzoyl)-6,7-methylenedioxy-4-oxo-1-quinolinyl]acetamide] |  |  | fold induction at 50 µM (HL-60 cells): 9
COc1ccc2c(n1)c(=O)c(C(=O)c1ccc3ccccc3c1)cn2CC(=O)Nc1ccc(Cl)cc1 [Example 21, N-(4-Chlorophenyl)-2-[6-methoxy-3-(2-naphthoyl)-4-oxo-(1,5-naphthyridin-1-yl)]acetamide] |  |  | fold induction at 25 µM (PLB-985 cells; [1]): 68.7; fold induction at 25 µM (PLB-985 cells; [2]): 9.2
COc1ccc(NC(=O)Cn2cc(C(=O)c3ccc(C)c(C)c3)c(=O)c3cc4c(cc32)OCO4)c(OC)c1 [Example 30, N-(2,4-Dimethoxyphenyl)-2-[3-(3,4-dimethylbenzoyl)-6,7-methylenedioxy-4-oxo-1-quinolinyl]acetamide] | 28.2 |  | fold induction at 25 µM (PLB-985 cells; [2]): 4.1
COc1cc2c(=O)c(C(=O)c3ccc4ccccc4c3)cn(CC(=O)Nc3ccc(Cl)cc3)c2cc1OC [Example 17, N-(4-Chlorophenyl)-2-[6,7-dimethoxy-3-(2-naphthoyl)-4-oxo-1-quinolinyl]acetamide] |  |  | fold induction at 25 µM (PLB-985 cells; [1]): 16.3
CCOc1ccc(NC(=O)Cn2cc(C(=O)c3ccc(C)cc3)c(=O)c3cc4c(cc32)OCO4)cc1 [Example 70, N-(4-Ethoxyphenyl)-2-(6,7-methylenedioxy-4-oxo-3-p-toluoyl-1-quinolinyl)acetamide] | 25.4 | 33.2 | 
COc1ccc(NC(=O)Cn2cc(C(=O)c3ccc(C)cc3)c(=O)c3cc4c(cc32)OCO4)cc1 [Example 46, N-p-Anisyl-2-(6,7-methylenedioxy-4-oxo-3-p-toluoyl-1-quinolinyl)acetamide] | 40.7 | 127 | 
COc1cc2c(cn1)c(=O)c(C(=O)c1ccc3ccccc3c1)cn2CC(=O)Nc1ccc(Cl)cc1 [Example 23, N-(4-Chlorophenyl)-2-[7-methoxy-3-(2-naphthoyl)-4-oxo-(1,6-naphthyridin-1-yl)]-acetamide] |  |  | fold induction at 25 µM (PLB-985 cells; [2]): 2.1
COc1cc(OC)c2c(=O)c(C(=O)c3ccc(F)cc3)cn(CC(=O)Nc3ccc(Cl)cc3)c2c1 [Example 44] |  |  | fold induction at 25 µM (PLB-985 cells; [2]): 78.1
COc1ccc2c(n1)c(=O)c(C(=O)c1ccc(F)cc1)cn2CC(=O)Nc1ccc(C)cc1 [Example 39, 2-[3-(4-Fluorobenzoyl)-6-methoxy-4-oxo-1,5-naphthyridin-1-yl]-N-p-tolylacetamide] |  |  | fold induction at 25 µM (PLB-985 cells; [2]): 76.2
Cc1ccc(C(=O)c2cn(CC(=O)Nc3ccc4c(c3)OCCO4)c3cc4c(cc3c2=O)OCO4)cc1C [Example 74, 2-[3-(3,4-Dimethylbenzoyl)-6,7-methylenedioxy-4-oxo-1-quinolinyl]-N-(3,4-ethylenedioxyphenyl)-acetamide] | 20.1 | 38 | 
O=C(Cn1cc(C(=O)c2ccc(Cl)cc2)c(=O)c2cc3c(cc21)OCO3)Nc1ccc(Cl)cn1 [Example 36, 2-[3-(4-Chlorobenzoyl)-6,7-methylenedioxy-4-oxo-1-quinolinyl]-N-(5-chloro-2-pyridyl)acetamide] | 46.4 |  | 
O=C(Cn1cc(C(=O)c2ccc(F)cc2)c(=O)c2cc3c(cc21)OCO3)Nc1ccc2c(c1)OCCO2 [Example 81, N-(3,4-Ethylenedioxyphenyl)-2-[3-(4-fluorobenzoyl)-6,7-methylenedioxy-4-oxo-1-quinolinyl]acetamide] | 22.6 |  | 

Structure (SMILES) | fold induction at 25 µM (PLB-985 cells; [3]) | fold induction at 25 µM (PLB-985 cells; [4]) | further results
O=C(Cn1cc(C(=O)c2ccc3ccccc3c2)c(=O)c2cc3c(cc21)OCO3)Nc1ccccc1Cl [Example 10, N-(2-ChlorophenyI)-2-[6,7-methylenedioxy-3-(2-naphthoyl)-4-oxo-1-quinolinyl]acetamide] |  |  | fold induction at 25 µM (PLB-985 cells; [2]): 1.7
COc1ccc2c(=O)c(C(=O)c3ccc4ccccc4c3)cn(CC(=O)Nc3ccc(Cl)cc3)c2c1 [Example 18, N-(4-Chlorophenyl)-2-[7-methoxy-3-(2-naphthoyl)-4-oxo-1-quinolinyl]acetamide] |  |  | fold induction at 25 µM (PLB-985 cells; [1]): 12.6
CCc1ccc(C(=O)c2cn(CC(=O)Nc3ccc(Cl)cc3)c3cc4c(cc3c2=O)OCO4)cc1 [Example 53, N-(4-Chlorophenyl)-2-[3-(4-ethylbenzoyl)-6,7-methylenedioxy-4-oxo-1-quinolinyl]acetamide] |  | 150 | 
COc1cccc(NC(=O)Cn2cc(C(=O)c3ccc(Cl)cc3)c(=O)c3cc4c(cc32)OCO4)c1 [Example 69, N-(m-Anisyl)-2-[3-(4-chlorobenzoyl)-6,7-methylenedioxy-4-oxo-1-quinolinyl]acetamide] | 4 | 4.6 | 
O=C(Cn1cc(C(=O)c2cccnc2)c(=O)c2cc3c(cc21)OCO3)Nc1ccc(Cl)cn1 [Example 34, N-(5-Chloro-2-pyridyl)-2-(6,7-methylenedioxy-3-nicotinoyl-4-oxo-1-quinolinyl)acetamide] | 27.5 |  | 
CCOc1ccc(C(=O)c2cn(CC(=O)Nc3ccc(Cl)cc3)c3cc4c(cc3c2=O)OCO4)cc1 [Example 61, N-(4-Chlorophenyl)-2-[3-(4-ethoxybenzoyl)-6,7-methylenedioxy-4-oxo-1-quinolinyl]acetamide] | 28.5 | 35.9 | 
O=C(Cn1cc(C(=O)c2ccc(Cl)cc2)c(=O)c2cc3c(cc21)OCO3)Nc1ccc2c(c1)OCO2 [Example 88, 2-[3-(4-Chlorobenzoyl)-6,7-methylenedioxy-4-oxo-1-quinolinyl]-N-(3,4-methylenedioxyphenyl)acetamide] | 31.4 |  | 
O=C(Cn1cc(C(=O)c2ccc3ccccc3c2)c(=O)c2cc3c(cc21)OCO3)Nc1cccc(Cl)c1 [Example 4, N-(3-chlorophenyl)-2-[6,7-methylenedioxy-3-(2-naphthoyl)-4-oxo-1-quinolinyl]acetamide] |  |  | fold induction at 25 µM (PLB-985 cells; [2]): 3.4
Cc1ccc(C(=O)c2cn(CC(=O)Nc3ccc(F)cc3)c3cc4c(cc3c2=O)OCO4)cc1 [Example 62, N-(4-Fluorophenyl)-2-(6,7-methylenedioxy-4-oxo-3-p-toluoyl-1-quinolinyl)acetamide] | 26.1 | 51 | 
O=C(Cn1cc(C(=O)c2ccc(F)cc2)c(=O)c2cc3c(cc21)OCO3)Nc1ccc(Cl)cc1 [Example 89, N-(4-Chlorophenyl)-2-[3-(4-fluorobenzoyl)-6,7-methylenedioxy-4-oxo-1-quinolinyl]acetamide] | 34.4 | 33 | fold induction at 25 µM (PLB-985 cells; [1]): 17.1
COc1cccc2c(=O)c(C(=O)c3ccc(F)cc3)cn(CC(=O)Nc3ccc(Cl)cc3)c12 [Example 43] |  |  | fold induction at 25 µM (PLB-985 cells; [2]): 3.8
Cc1ccc(C(=O)c2cn(CC(=O)Nc3ccc(Cl)cc3)c3cc4c(cc3c2=O)OCO4)cc1C [Example 50, N-(4-Chlorophenyl)-2-[3-(3,4-dimethylbenzoyl)-6,7-methylenedioxy-4-oxo-1-quinolinyl]acetamide] | 62.8 | 163 | 
O=C(Cn1cc(S(=O)(=O)c2ccccc2)c(=O)c2cc3c(cc21)OCO3)Nc1ccc(F)cc1 [Example 80, 2-(3-Benzenesulfonyl-6,7-methylenedioxy-4-oxo-1-quinolinyl)-N-(4-fluorophenyl)acetamide] | 3.2 |  | 
O=C(Cn1cc(C(=O)c2ccc3ccccc3c2)c(=O)c2cc3c(cc21)OCO3)Nc1ccc(Cl)cc1Cl [Example 6, N-(2,4-DichlorophenyI)-2-[6,7-methylenedioxy-3-(2-naphthoyl)-4-oxo-1-quinolinyl]acetamide] |  |  | fold induction at 25 µM (PLB-985 cells; [2]): 1.7
CCc1ccc(C(=O)c2cn(CC(=O)Nc3ccc4c(c3)OCO4)c3cc4c(cc3c2=O)OCO4)cc1 [Example 78, 2-[3-(4-Ethylbenzoyl)-6,7-methylenedioxy-4-oxo-1-quinolinyl]-N-(3,4-methylenedioxyphenyl)acetamide] | 11.6 |  | 
O=C(Cn1cc(C(=O)c2ccc(F)cc2)c(=O)c2cc3c(cc21)OCO3)Nc1ccc2c(c1)OCO2 [Example 86, 2-[3-(4-Fluorobenzoyl)-6,7-methylenedioxy-4-oxo-1-quinolinyl]-N-(3,4-methylenedioxyphenyl)acetamide] | 28.3 | 22.7 | 
